In general, IC50 refers to the concentration needed to halve the response being measured.

SMILES strings stand for the structures. In brackets after ≈: the same amount, converted by molar mass. Bounds are passed on as bounds.

The test system of series [1] is Trichophyton mentagrophytes. Nature of the series: Antimicrobial activity against Trichophyton mentagrophytes at 60 ug/disk. It is filed as functional. The conditions noted are these: read-out: IZ.
The test system of series [2] is Trichophyton mentagrophytes. The series can be described thus: Antimicrobial activity against Trichophyton mentagrophytes at 30 ug/disk. It is filed as functional. The conditions noted are these: read-out: IZ.
A short description of series [3]: Cytotoxicity against african green monkey BSC1 cells at 120 ug/disk. It is filed as cell-based. Conditions: chlorocebus aethiops, bsc-1.
Series [4] in a line: Cytotoxicity against african green monkey BSC1 cells at 60 ug/disk. The conditions noted are these: chlorocebus aethiops, bsc-1. It is filed as cell-based.
Series [5] is described as follows: Cytotoxicity against african green monkey BSC1 cells at 30 ug/disk. It is filed as cell-based. Conditions: chlorocebus aethiops, bsc-1.
The test system of a further series is P388. Nature of the series: Cytotoxicity against mouse P388 cells. It is filed as functional, cell-based.
The subject of series [6] is Bacillus subtilis. Nature of the series: Antimicrobial activity against Bacillus subtilis at 120 ug/disk. It is filed as functional. The conditions noted are these: read-out: IZ.
For series [7], the system named is Bacillus subtilis. The series can be described thus: Antimicrobial activity against Bacillus subtilis at 60 ug/disk. It is filed as functional. The conditions noted are these: read-out: IZ.
The subject of series [8] is Bacillus subtilis. Nature of the series: Antimicrobial activity against Bacillus subtilis at 30 ug/disk. It is filed as functional. Conditions: read-out: IZ.
Series [9] deals with Escherichia coli. Nature of the series: Antimicrobial activity against Escherichia coli at 120 ug/disk. It is filed as functional. The conditions noted are these: read-out: IZ.
The subject of series [10] is Escherichia coli. The series can be described thus: Antimicrobial activity against Escherichia coli at 60 ug/disk. It is filed as functional. Conditions: read-out: IZ.
Series [11] relates to Escherichia coli. The series can be described thus: Antimicrobial activity against Escherichia coli at 30 ug/disk. It is filed as functional. Conditions: read-out: IZ.
For series [12], the system named is Pseudomonas aeruginosa. The series can be described thus: Antimicrobial activity against Pseudomonas aeruginosa at 120 ug/disk. It is filed as functional. The conditions noted are these: read-out: IZ.
Series [13] has as its system Pseudomonas aeruginosa. The series can be described thus: Antimicrobial activity against Pseudomonas aeruginosa at 60 ug/disk. It is filed as functional. Conditions: read-out: IZ.
The subject of series [14] is Pseudomonas aeruginosa. Nature of the series: Antimicrobial activity against Pseudomonas aeruginosa at 30 ug/disk. Conditions: read-out: IZ. It is filed as functional.
Series [15] relates to Trichophyton mentagrophytes. The series can be described thus: Antimicrobial activity against Trichophyton mentagrophytes at 120 ug/disk. It is filed as functional. Conditions: read-out: IZ.
A short description of series [16]: Cytotoxicity against african green monkey BSC1 cells at 15 ug/disk. It is filed as cell-based. Conditions: chlorocebus aethiops, bsc-1.
The subject of series [17] is Trichophyton mentagrophytes. Nature of the series: Antimicrobial activity against Trichophyton mentagrophytes at 15 ug/disk. It is filed as functional. Conditions: read-out: IZ.
The test system of series [18] is Bacillus subtilis. Nature of the series: Antimicrobial activity against Bacillus subtilis at 15 ug/disk. Conditions: read-out: IZ. It is filed as functional.
Series [19] deals with Escherichia coli. Nature of the series: Antimicrobial activity against Escherichia coli at 15 ug/disk. The conditions noted are these: read-out: IZ. It is filed as functional.
Series [20] deals with Pseudomonas aeruginosa. Nature of the series: Antimicrobial activity against Pseudomonas aeruginosa at 15 ug/disk. It is filed as functional. Conditions: read-out: IZ.

In the case of `C=C(C(=O)OC[C@H]1O[C@@H](Oc2ccc(O)cc2)[C@H](O)[C@@H](O)[C@@H]1O)[C@@H](O)CO`, the zone of inhibition at 60 µg/disc in [1] is 0 mm; in the series with Bacillus subtilis [7], 1 mm; with Escherichia coli [10] it was 2 mm; in the series with Pseudomonas aeruginosa [13], 1 mm. The zone of inhibition at 30 µg/disc (in [2]; in the series with Bacillus subtilis [8]; in the series on Escherichia coli [11]; in the series with Pseudomonas aeruginosa [14]) was 0 mm each time. Besides, the Activity amounted to 100% in [3], 100% in [4] and 50% in [5]. In the series on P388, this compound had an IC50 of 3 µg/mL (≈ 7.76 µM). Also, the zone of inhibition at 120 µg/disc worked out at 5 mm in the series with Bacillus subtilis [6], 4 mm in the series on Escherichia coli [9], 3 mm in the series on Pseudomonas aeruginosa [12] and 5 mm in series [15].
`OC[C@H]1O[C@@H](Oc2ccc(O)cc2)[C@H](O)[C@@H](O)[C@@H]1O` [ARBUTIN] registered an Activity in series [3] of 50%. This compound also displayed an IC50 with P388 above 25 µg/mL. The zone of inhibition at 120 µg/disc (in the series with Bacillus subtilis [6]; in the series with Escherichia coli [9]; in the series with Pseudomonas aeruginosa [12]; in series [15]) was 0 mm each time.
Turning to `C=C(CCO)C(=O)OC[C@H]1O[C@@H](Oc2ccc(O)cc2)[C@H](O)[C@@H](O)[C@@H]1O`, the zone of inhibition at 60 µg/disc (in [1]; with Bacillus subtilis [7]; with Escherichia coli [10]; in the series with Pseudomonas aeruginosa [13]) was 0 mm throughout. For the same compound, the zone of inhibition at 30 µg/disc (in series [2]; in the series on Bacillus subtilis [8]; in the series on Escherichia coli [11]; in the series on Pseudomonas aeruginosa [14]) was 0 mm in each case. In addition, the Activity in series [3] was 100%; in series [4], 100%; in [5], 100%; in [16] it was 50%. For the same compound, the IC50 with P388 is above 25 µg/mL. The zone of inhibition at 120 µg/disc (in the series on Bacillus subtilis [6]; in the series with Escherichia coli [9]; in the series with Pseudomonas aeruginosa [12]; in series [15]) was 0 mm each time.
Consider `Oc1ccc(O)cc1` [HYDROQUINONE], for which the zone of inhibition at 60 µg/disc in series [1] was 0 mm; in the series on Bacillus subtilis [7] it was 4 mm; in the series with Escherichia coli [10] it was 0 mm; in the series with Pseudomonas aeruginosa [13], 3 mm. The zone of inhibition at 30 µg/disc in series [2] turned out to be 0 mm; in the series on Bacillus subtilis [8], 3 mm; in the series on Escherichia coli [11], 0 mm; in the series on Pseudomonas aeruginosa [14], 2 mm. For the same compound, the Activity is given as 100% in series [3], 100% in [4] and 75% in series [5]. The IC50 in the series on P388 worked out at 3 µg/mL (≈ 27.2 µM). The zone of inhibition at 120 µg/disc in the series with Bacillus subtilis [6] worked out at 9 mm; with Escherichia coli [9], 5 mm; in the series with Pseudomonas aeruginosa [12], 3 mm; in series [15], 10 mm.
In the case of `C=C1CCOC1=O` [TULIPALINE A], the zone of inhibition at 60 µg/disc (in series [1]; in the series with Bacillus subtilis [7]; in the series with Escherichia coli [10]; in the series with Pseudomonas aeruginosa [13]) was 0 mm each time. Also, the zone of inhibition at 30 µg/disc (in series [2]; with Bacillus subtilis [8]; in the series with Escherichia coli [11]; with Pseudomonas aeruginosa [14]) was 0 mm in each case. The zone of inhibition at 15 µg/disc (in [17]; in the series on Bacillus subtilis [18]; with Escherichia coli [19]; with Pseudomonas aeruginosa [20]) was 0 mm throughout. Moreover, the Activity in series [3], in series [4], in [5] and in series [16] was 100% each time. The same compound displayed an IC50 with P388 of 0.8 µg/mL (≈ 8.15 µM). Moreover, the zone of inhibition at 120 µg/disc with Bacillus subtilis [6] was determined as 10 mm; with Escherichia coli [9], 5 mm; with Pseudomonas aeruginosa [12], 4 mm; in series [15], 8 mm.

Values taken from ChEMBL document CHEMBL1146419, “Antimicrobial and cytotoxic phenolic glycoside esters from the New Zealand tree Toronia toru” (J Nat Prod, 1997).
